{"source": "patent US20260294865A1", "about": "“AUTOPHAGY ACTIVATOR AND AUTOPHAGY ACTIVATION COMPOSITION” (MARUZEN PHARMACEUTICALS CO., LTD., priority 2023, published 2026)", "test_system": "HeLa cells stably expressing tfLC3", "assay": "tfLC3 test (autophagy activity, GFP/RFP ratio)", "format": "cell-based", "conditions": "for Ratio with respect to DMSO (GFP/RFP value, negative control taken as 1): final concentration 10 μM, 24 hours, HeLa cells stably expressing tfLC3, negative control 0.1% DMSO = 1, lower value = autophagy activation; for autophagy activation effect (in words): tfLC3 test, GFP/RFP ratio lower than negative control", "text": "An autophagy activation effect was examined by a tfLC3 test using the compound represented by the structural formula (1) (manufactured by INDOFINE Chemical Company) and the compound represented by the structural formula (2) (manufactured by INDOFINE Chemical Company) as test samples.\nThe tfLC3 test is a test performed by using tfLC3, in which LC3 that is an autophagosome marker protein is tandemly tagged with fluorescent proteins mRFP (RFP: Red Fluorescent Protein) and EGFP (GFP: Green Fluorescent Protein) (Autophagy 2007; 3:452-460. (PubMed: 17534139) DOI: 10.4161/auto. 4451).\nIn a cell undergoing autophagy, LC3 dots increase. However, LC3 is accumulated in a cell even if degradation due to autophagy is inhibited. Therefore, an increase of the LC3 dots alone cannot be used to conclude that autophagy is enhanced. Therefore, enhancement and inhibition of autophagy can be distinguished by examining the maturation process of autophagosomes (process of fusion of autophagosomes with lysosomes, or degradation in autolysosomes after fusion).\nA fluorescent signal (green) of GFP of the tfLC3 is attenuated in the environment within the lysosomes, but RFP (red) is stable in the same environment. By using this characteristic of tfLC3 that fluorescence becomes red due to quenching of GFP in the process of maturing autophagosomes into autolysosomes, a GFP/RFP ratio within a cell is analyzed in the tfLC3 test to determine whether or not a test sample added to a medium has an autophagy activation capability.\nHeLa cells stably expressing tfLC3 were seeded in a 96-well plate (Perkin Elmer #6055302 Cell Carrier 96 Ultra Black 96 well, Clear Bottom, with Lid), and the HeLA cells were cultured in a growth medium [Growth medium (DMEM (Sigma D6546) supplemented with 10% FBS and 4 mM L-glutamine] in a 5% CO2 incubator for 24 hours. Then, the medium was replaced with a medium to which a test sample was added (see Table 1 for the final concentration of the test sample), followed by culturing for 24 hours.\nAs a negative control, cells cultured in a medium including 0.1% dimethyl sulfoxide (DMSO) were used.\nThe GFP/RFP value (may be referred to as a “ratio with respect to DMSO” hereinafter) measured in the cells cultured in the test sample-added medium was calculated by determining the GFP/RFP value measured in the negative control as 1.\nA test sample that has a lower value for the GFP/RFP ratio than the value for the GFP/RFP ratio of the negative control can be determined as having an autophagy activation effect."}
{"smiles": "COc1cc(OC)c2c(=O)cc(-c3ccc(OC)c(OC)c3)oc2c1", "note": "[2-(3,4-dimethoxyphenyl)-5,7-dimethoxy-4H-chromen-4-one]", "values": [{"measurement": "Ratio with respect to DMSO (GFP/RFP value, negative control taken as 1)", "result": 0.847}, {"measurement": "autophagy activation effect (in words)", "result": "had the autophagy activation effect"}]}
{"smiles": "COc1ccc2c(=O)c(OC)c(-c3cc(OC)c(OC)c(OC)c3)oc2c1", "note": "[3,7-dimethoxy-2-(3,4,5-trimethoxyphenyl)-4H-chromen-4-one]", "values": [{"measurement": "Ratio with respect to DMSO (GFP/RFP value, negative control taken as 1)", "result": 0.848}, {"measurement": "autophagy activation effect (in words)", "result": "had the autophagy activation effect"}]}
